Measured values published in patent publication US7064190B1, “Antigen-specific, activated T lymphocytes, detection and use” (Roche Diagnostics GmbH, priority 1994, dated 2006).

What was measured:
Format in all cases: cell-based, human
T cell line 6/10 [1] = assay: Proliferation test with variants of the peptide 5G1 using the T cell line 6/10; conditions: for Stimulation index: TCL 6/10, variants of peptide 5G1
Protocol: In order to elucidate the core structure of the stimulating peptide 5G1, proliferation tests were carried out with various variants of this peptide using the T cell line 6/10 (see Table 4).
A test with a first series of 20 mer variants is intended to ascertain whether amino acids which border on the 5G1 structure at the C- or N-terminus play a role in the recognition by the T cell line 6/10. […] A 6 amino acid shift towards the N-terminus leads to a loss in stimulation capacity.
A test with a second series of peptide variants examines the influence of a shortening at the C-terminus.
The object of a test with a third series of peptide variants was to define the N-terminus of the minimum stimulation-active peptide. If the amino acids leucine (L) and proline (P) are removed from a 18 mer with an intact C-terminus, this leads to a strong decrease of the stimulation index. The N-terminus is thus defined by L and P. If the […] is shortened further by H and F this also leads to a loss of stimulation activity.

T cell line 6/10 [2] = assay: Proliferation test with peptides derived from the H-GAD sequence, T cell line 6/10; conditions: 10 μg/ml individual peptides from pools 7 and 11, FIG. 6
Protocol: (§1) Autologous PBLs or PBLs of a normal donor which are identical with regard to the HLA class II antigens are used as stimulator cells. The PBLs are pre-incubated with antigen as described in paragraph 2, irradiated with 4000 rad and distributed in 96 well plates (100 000 cells/well).
(§2) After 3–4 days at 37° C./7% CO2, 1 μCi ^3H-thymidine is added and incubated for a further 16–20 hours. Afterwards the cells are transferred onto a glass fibre filter by means of a cell harvester instrument and the incorporated radioactivity is determined in a β counter.
(§3) T cell lines that had been expanded by means of at least 4 restimulation cycles and which reacted with SW-GAD in the proliferation test were additionally tested with overlapping peptides of H-GAD. The object of these experiments is to define the epitopes of H-GAD that are recognized by the T cells. For this, overlapping 20 mer peptides of H-GAD are firstly synthesized (overlapping region 10 amino acids, total of 59 different peptides).
(§4) […] The further treatment of these stimulator cells is carried out as described in section 3a.
(§5) Subsequently 6000–20,000 T cells are added per microculture well. The further procedure is analogous to that described in section 3b.

T cell line 6/7 [3] = assay: T cell proliferation with peptides using PBLs of various haplotypes as antigen-presenting cells, TCL 6/7; conditions: for SI (stimulation index): TCL 6/7
Protocol: (§6) The experimental procedure is analogous to example 1.3. […] The proliferation tests were carried out using the autoantigenic peptides 5G1 (corresponding to amino acids 266–285 of human GAD65) and 5F3 (corresponding to amino acids 306–325 of human GAD65).
(§7) T cell proliferation after stimulation with the peptides 5G1 and 5F3 using PBLs with various haplotypes as antigen-presenting cells

T cell line 6/7 [4] = assay: Proliferation test with peptides derived from the H-GAD sequence, T cell line 6/7; conditions: 10 μg/ml individual peptides from pools 7 and 11, FIG. 5
Protocol: as §1, §2, §3, §4, §5

T cell line 6/10 [5] = assay: T cell proliferation with peptides using PBLs of various haplotypes as antigen-presenting cells, TCL 6/10; conditions: for SI (stimulation index): TCL 6/10; for proliferation in the presence of the DR B1 allele 0401: T cell line 6/10
Protocol: as §6, §7

T cell line 6/10 [6] = assay: Proliferation test with SW-GAD, T cell line 6/10; conditions: stimulator PBLs pulsed with SW-GAD
Protocol: (§8) The first restimulation is carried out on the 14th day after the beginning of the primary stimulation. For this, in comparison to the primary stimulation, double the number of autologous PBLs is isolated by means of Ficoll and adjusted in culture medium to a cell concentration of 2×10^6/ml. One half of these stimulator cells is incubated for 2 hours/37° C./7% CO2 with the antigen SW-GAD (final concentration 5 μg/ml) (antigen pulse). The other half is incubated under the same conditions without antigen and only with culture medium. Subsequently all stimulator cells are irradiated with 4000 rad. The stimulator cells are then distributed (100 000 cells/well) in 96 well round-bottom plates in such a way that a well with stimulator cells containing antigen is always adjacent to a well with stimulator cells without antigen.
(§9) All tests are carried out in at least duplicate preparations.
(§10) Autologous PBLs or PBLs of a normal donor which are identical with regard to the HLA class II antigens are used as stimulator cells. […]
as §2

T cell line 6/7 [7] = assay: Proliferation test with SW-GAD, T cell line 6/7; conditions: stimulator PBLs pulsed with SW-GAD
Protocol: as §8, §9, §10, §2

[8] = APC donor four (DR B1 0301/0401)
[9] = APC donor one (DR B1 1302/0401)
[10] = APC donor three (DR B1 0301/0404)
[11] = APC donor two (DR B1 0101/1601)

Molecule: AALPRLIAFTSE [SEQ ID NO:12]
- Stimulation index (T cell line 6/10 [1]): 0.6

Molecule: ALPRLIAFTSEHSHFSLKKG [SEQ ID NO:6]
- Stimulation index (T cell line 6/10 [1]): 3.0

Molecule: GMAALPRLIAFT [SEQ ID NO:14]
- Stimulation index (T cell line 6/10 [1]): 1.0

Molecule: GMAALPRLIAFTSEHSHFSL [5G1, corresponding to amino acids 266–285 of human GAD 65]
- proliferation with individual peptides (T cell line 6/10 [2]): significant proliferation
- recognition in association with the alleles DR B1 0101 or/and 1601 (T cell line 6/7 [3]; T cell line 6/7): recognizes
- SI (stimulation index) (T cell line 6/7 [3]; APC donor 19 (DR B1 0301/0401)): 45.7
- SI (stimulation index) (T cell line 6/7 [3]; [8]): 55.0
- SI (stimulation index) (T cell line 6/7 [3]; [9]): 67.8
- SI (stimulation index) (T cell line 6/7 [3]; [10]): 0.9
- SI (stimulation index) (T cell line 6/7 [3]; [11]): 28.6
- Stimulation index (T cell line 6/10 [1]): 5.4
- proliferation with individual peptides (T cell line 6/7 [4]): significant proliferation
- SI (stimulation index) (T cell line 6/10 [5]; APC donor 19 (DR B1 0301/0401)): 8.5
- SI (stimulation index) (T cell line 6/10 [5]; [8]): 6.0
- SI (stimulation index) (T cell line 6/10 [5]; [9]): 22.6
- SI (stimulation index) (T cell line 6/10 [5]; [10]): 1.5
- SI (stimulation index) (T cell line 6/10 [5]; [11]): 2.2

Molecule: GMAALPRLIAFTSEHSHFSLKKGAA (GMAALPRLIAFTSEHSHFSLKKGAA) [amino acid sequence (I), amino acid residues 266–290 of the human GAD 65]
- proliferation in the presence of the DR B1 allele 0401 and 0101 or/and 1601 (T cell line 6/7 [3]; T cell line 6/7): proliferates
- proliferation in the presence of the DR B1 allele 0401 (T cell line 6/10 [5]): proliferates

Molecule: AALPRLIAFTSEHSHFSL [SEQ ID NO:9]
- Stimulation index (T cell line 6/10 [1]): 4.5

Molecule: RLIAFTSEHSHFSL [SEQ ID NO:16]
- Stimulation index (T cell line 6/10 [1]): 1.4

Molecule: AALPRLIAFTSEHS [SEQ ID NO:11]
- Stimulation index (T cell line 6/10 [1]): 0.7

Molecule: GMAALPRLIAFTSE [SEQ ID NO:13]
- Stimulation index (T cell line 6/10 [1]): 0.8

Molecule: LPRLIAFTSEHSHFSLKK [SEQ ID NO:15]
- Stimulation index (T cell line 6/10 [1]): 3.2

Molecule: LPRLIAFTSEHSHF [SEQ ID NO:17]
- stimulation capacity of 5G1 variants (T cell line 6/10 [1]; T cell line 6/10): minimum peptide that can still stimulate
- Stimulation index (T cell line 6/10 [1]): 4.6

Molecule: RLIAFTSEHSHFSLKKGAAA [SEQ ID NO:7]
- Stimulation index (T cell line 6/10 [1]): 3.2

Molecule: LPRLIAFTSEHS [SEQ ID NO:18]
- Stimulation index (T cell line 6/10 [1]): 0.4

Molecule: AALPRLIAFTSEHSHF [SEQ ID NO:10]
- Stimulation index (T cell line 6/10 [1]): 2.9

Molecule: ERGKMIPSDLERRILEAKQK (ERGKMIPSDLERRILEAKQK) [5F3, corresponding to amino acids 306–325 of human GAD 65]
- proliferation with individual peptides (T cell line 6/10 [2]): smaller but significant proliferation
- proliferation in the presence of the DR B1 allele 0401 (T cell line 6/7 [3]; T cell line 6/7): proliferation in the presence of the DR B1 allele 0401 is found
- SI (stimulation index) (T cell line 6/7 [3]; APC donor 19 (DR B1 0301/0401)): 3.1
- SI (stimulation index) (T cell line 6/7 [3]; [8]): 3.8
- SI (stimulation index) (T cell line 6/7 [3]; [9]): 7.0
- SI (stimulation index) (T cell line 6/7 [3]; [10]): 0.6
- SI (stimulation index) (T cell line 6/7 [3]; [11]): 1.2
- proliferation with individual peptides (T cell line 6/7 [4]): smaller but significant proliferation
- proliferation in the presence of the DR B1 allele 0401 (T cell line 6/10 [5]): proliferates
- SI (stimulation index) (T cell line 6/10 [5]; APC donor 19 (DR B1 0301/0401)): 2.8
- SI (stimulation index) (T cell line 6/10 [5]; [8]): 3.8
- SI (stimulation index) (T cell line 6/10 [5]; [9]): 6.5
- SI (stimulation index) (T cell line 6/10 [5]; [10]): 1.5
- SI (stimulation index) (T cell line 6/10 [5]; [11]): 1.4

Molecule: PEVKEKGMAALPRLIAFTSE [SEQ ID NO:8]
- Stimulation index (T cell line 6/10 [1]): 0.6

B1: SW-GAD: porcine GAD (glutamic acid decarboxylase from pig brain) used as antigen (protein)
chain: MASSTPSSSATSSNAGPDPNTTNLRPTTYDTWCGVAHGCTRKLGLKICGFLQRTNSLEEKSRLVSAFKERQSSKNLLSCENSDRDGRFRRTETDFSNLFARDLLPAKNGEEQTVQFLLEVVDILLNYVRKTFDRSTKVLDFHHPHQLLEGMEGFNLELSDHPESLEQILVDCRDTLKYGVRTGHPRFFNQLSTGLDIIGLAGEWLTSTANTNMFTYEIAPVFVLMEQITLKKMREIVGWSNKDGDGIFSPGGAISNMYSIMAARYKYFPEVKTKGMAAVPKLVLFTSEHSHYSIKKAGAALGFGTDNVILIKCNERGKIIPADLEAKILEAKQKGYIPLYVNATAGTTVYGAFDPIQEIADICEKYNLWLHVDAAWGGGLLMSRKHRHKLSGIERADSVTWNPHKMMGVLLQCSAILVKEKGILQGCNQMCAGYLFQPDKQYDVSYDTGDKAIQCGRHVDIFKFWLMWKAKGTVGFENQINKCLELAEYLYAKIKNREEFEMVFDGEPEHTNVCFWYIPQSLRGVPDSPERREKLHRVAPKIKALMMESGTTMVGYQPQGDKANFFRMVISNPAATQSDIDFLIEEIERLGQDL
- cpm SW-GAD (3H-thymidine incorporation) (T cell line 6/10 [6]): 5222 cpm
- cpm SW-GAD (3H-thymidine incorporation) (T cell line 6/7 [7]): 9373 cpm
